Assay results reported in patent US11203601B2, “Tricyclic compounds as glycogen synthase kinase 3 (GSK3) inhibitors and uses thereof” (The Broad Institute, Inc., priority 2017, dated 2021).
Converted amounts (≈) assume the structure as drawn. Read-outs that look alike come from different tables or passages of the source.

Tests used:
[1] = biological target: T1, GSK3β (Homo sapiens (Human), UniProt P49841); assay: GSK3 beta biochemical assay (TR-FRET)
Method: (§6) 1 nM enzyme, 200 nM biotinylated peptide
(§7) 4 μM ATP (GSK3 alpha) or 2 μM ATP (GSK3 beta)
(§8) The reaction volume is 10 μL, and the final percent DMSO is 1%. The total volume of DMSO is therefore 100 nL. It is critical that the percentage of DMSO be controlled and consistent across the plate. […] The High control is with all assay components but no inhibitor, the low control is with all assay components but no enzyme.
(§9) Make 2× detection reagents in Invitrogen TR-FRET detection buffer for final 20 nM Strepavidin-d2, 1 nM Tb^2+-pSer641 antibody (using 20 μl as final volume). 2× detection=40 nM Strepavidin-d2, 2 nM Tb^2+-pSer641 antibody.
(§10) XLFit is used for results which are archived into a database. The data is normalized as a percentage of uninhibited control minus max inhibited controls.

[2] = biological target: T2, GSK3α (Homo sapiens (Human), UniProt P49840); assay: GSK3 alpha biochemical assay (TR-FRET)
T2 sequence (P49840 whole entry): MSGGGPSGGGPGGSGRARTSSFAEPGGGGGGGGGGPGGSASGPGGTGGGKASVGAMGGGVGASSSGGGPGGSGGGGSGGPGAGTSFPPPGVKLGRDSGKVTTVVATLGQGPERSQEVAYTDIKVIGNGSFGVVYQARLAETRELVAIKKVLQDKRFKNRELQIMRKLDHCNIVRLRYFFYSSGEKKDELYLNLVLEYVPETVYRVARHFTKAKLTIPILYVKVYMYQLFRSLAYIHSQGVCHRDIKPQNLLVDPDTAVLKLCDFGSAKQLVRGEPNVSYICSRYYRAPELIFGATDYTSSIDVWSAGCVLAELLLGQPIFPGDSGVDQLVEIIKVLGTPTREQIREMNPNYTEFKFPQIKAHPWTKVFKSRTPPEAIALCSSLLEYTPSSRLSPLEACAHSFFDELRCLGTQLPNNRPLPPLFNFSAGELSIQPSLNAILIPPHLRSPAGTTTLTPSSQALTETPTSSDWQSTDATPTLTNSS
Method: as §6, §7, §8, §9, §10

[3] = biological target: T2, GSK3α; assay: Mobility shift microfluidics assay; assay type: biochemical
Method: (§11) Reactions were terminated by the addition of 10 mM ethylenediaminetetraacetic acid (EDTA). Substrate and product were separated electrophoretically, and fluorescence intensity of the substrate and product was determined by Labchip EZ Reader II (Caliper Life Sciences). The kinase activity was measured as percent conversion. The reactions were performed in duplicate for each sample. […] The results were analyzed by Genedata Assay Analyzer. The percent inhibition was plotted against the compound concentration, and the IC50 value was determined from the logistic dose-response curve fitting. Values are the average of at least three experiments.

[4] = biological target: T1, GSK3β; assay: Mobility shift microfluidics assay; assay type: biochemical; settings: 4.3 μM ATP, 60 minutes at room temperature
Method: as §11

[5] = Plasma stability, mouse; assay type: in vitro ADME, mouse (CD-1)
Method: (§1) Stability of compound in plasma was tested in duplicate by incubating compound at 5 μM for 5 hours at 37° C. Compound level at 5 hours was compared to level at 0 hours, and percent remaining was calculated. Binding to plasma proteins was tested in duplicate by incubating compound in plasma at 5 μM for 5 hours at 37° C. in the Rapid Equilibrium Dialysis (RED) Device. Compound level in plasma compartment was compared to compound level in buffer compartment to calculate percent bound. Order by selecting Plasma Stability and Plasma Protein Binding in Prometheus, checking boxes for desired species.
(§2) Available species: human, mouse (CD-1), and rat (Sprague-Dawley). Compound requirements: 15 μL of a 10 mM DMSO solution. Incubation time: 5 hours at 37° C. Test Concentration: 5 μM.

[6] = Plasma stability, human; assay type: in vitro ADME; settings: human plasma, 5 μM, 5 hours at 37° C.
Method: as §1, §2

[7] = Plasma protein binding (RED), mouse; assay type: in vitro ADME, mouse (CD-1); settings: CD-1, 5 hours at 37° C., read-out: Plasma Protein Binding (Mouse, % bound) (converted)
[8] = Plasma protein binding (RED), human; assay type: in vitro ADME; settings: 5 hours at 37° C., read-out: Plasma Protein Binding (Human, % bound) (converted)
Method: as §1, §2

[9] = Liver microsomal stability, mouse; assay type: in vitro ADME, mouse (CD-1); settings: 1 μM, 60 minutes at 37° C.
Method: (§3) Stability of compound in liver microsomes was tested in duplicate by incubating compound at 1 μM for 60 minutes at 37° C. Compound level at 60 minutes was compared to level at 0 minutes, and percent remaining was calculated. Order by selecting Microsomal Stability in Prometheus, checking boxes for desired species.
(§4) Available species: human, mouse (CD-1), and rat (Sprague-Dawley). Compound requirements: 5 μL of a 10 mM DMSO solution. Incubation time: 60 minutes at 37° C. Test Concentration: 1 μM.
(§5) Microsomes with NADPH without compound-matrix interference. Microsomes plus compound without NADPH-non-enzymatic instability.

[10] = Liver microsomal stability, human; assay type: in vitro ADME; settings: 1 μM, 60 minutes at 37° C.
Method: as §3, §4, §5

[11] = Solubility in PBS; settings: 23 °C, aqueous buffer, thermodynamic from solid
Method: Solubility of compound was tested in triplicate by diluting a 10 mM DMSO solution with PBS. Maximum concentration of compound in solution was 100 μM.
Solubility of compound was tested in triplicate by drying down a 10 mM DMSO solution and then attempting to reconstitute in 100% PBS. Maximum concentration of compound in solution was 500 μM.
Compound requirements (1% DMSO in PBS): 30 μL of a 10 mM DMSO solution. Compound requirements (PBS-only): 60 μL of a 10 mM DMSO solution. Equilibration time: 18 hours at room temperature.

[12] = tested on: MDR1; assay: MDR1/MDCK assay (Example 4); assay type: in vitro ADME; settings: dog, MDCK-MDR1; for Papp A→B at 120 min, 5 μM / Papp B→A at 120 min, 5 μM: pH 7.4, 120 minutes; for efflux ratio at 120 min, 5 μM: (Papp B to A)/(Papp A to B)
Method: The MDR1/MDCK assay is run at Absorption Systems. This assay is used to determine the blood-brain barrier (BBB) penetration potential of a test compound using MDR1-MDCK cell monolayers. Catalog number EA203.
Substrate • Test compound at 5 μM in HBSSg with maximum DMSO concentration not greater than 1%. Assay System • Confluent monolayers of MDR1-MDCK cells, 7 to 11 days old. Assay Conditions • Receiver well with 1% BSA in modified Hanks buffer (HBSSg) • Apical and basolateral side at pH 7.4 • Dose two monolayers in each direction (N=2) • Dose apical side for (A to B) assessment • Dose basolateral side for (B to A) assessment • Sample both apical and basolateral sides at 120 minutes • Determine the concentrations of test compound using a generic LC-MS/MS method with a minimum 4 point calibration curve. Assay QC • The quality of the cell monolayer batch is verified using control compounds before monolayers are released for use • The quality of each monolayer used in the assay is verified by a TEER measurement and by calculating the Papp for a control compound. Solubility (SOL) 1% DMSO in PBS

T1 sequence (P49841 whole entry): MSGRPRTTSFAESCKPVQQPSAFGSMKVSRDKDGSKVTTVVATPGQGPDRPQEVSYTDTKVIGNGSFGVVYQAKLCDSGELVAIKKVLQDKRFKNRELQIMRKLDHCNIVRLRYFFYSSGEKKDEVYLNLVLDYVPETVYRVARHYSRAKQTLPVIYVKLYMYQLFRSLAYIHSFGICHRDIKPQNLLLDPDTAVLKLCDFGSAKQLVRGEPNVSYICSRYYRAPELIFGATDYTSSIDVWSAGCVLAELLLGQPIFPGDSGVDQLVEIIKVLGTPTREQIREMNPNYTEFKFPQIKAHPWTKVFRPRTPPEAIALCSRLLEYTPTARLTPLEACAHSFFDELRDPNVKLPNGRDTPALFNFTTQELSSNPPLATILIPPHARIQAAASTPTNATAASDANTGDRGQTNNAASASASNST

With CCCC1CC(=O)C2=C(C1)Nc1ncsc1C2(CC)c1ccccc1 (centres unmarked) [Compound 9] the IC50 [1] was 418 nM and the IC50 [2] was 184 nM.

CCC1(c2ccccc2)C2=C(CC(CC(C)C)CC2=O)Nc2ncsc21 (centres unmarked) [Compound 10] gave an IC50 [1] of 644 nM and an IC50 [2] of 189 nM.

CCC1(c2ccccc2)C2=C(CCCC2=O)Nc2ncsc21 (centres unmarked) [Compound 11] gave an IC50 [1] greater than 1670 nM and an IC50 [2] of 419 nM.

Compound CCC1(c2ccc(C)cc2)C2=C(CC(C)(C)CC2=O)Nc2ncsc21 (centres unmarked) [Compound 13] has an IC50 [1] of 619 nM and an IC50 [2] of 187 nM.

For CCC1(c2cccc(Br)c2)C2=C(CC(C)(C)CC2=O)Nc2ncsc21 (centres unmarked) [Compound 14], the IC50 [1] was 234 nM and the IC50 [2] was 41 nM.

With CCC1(c2ccccc2)C2=C(CC(C)(C)CC2=O)Nc2nc(C)sc21 (centres unmarked) [Compound 15] the IC50 [1] was greater than 5000 nM and the IC50 [2] was greater than 5000 nM.

Compound CC1(C)CC(=O)C2=C(C1)Nc1ncsc1C21CCCc2ccccc21 (centres unmarked) [Compound 16] has an IC50 [1] greater than 5000 nM and an IC50 [2] greater than 5000 nM.

With CC1(C)CC(=O)C2=C(C1)Nc1ncsc1C21CCCCc2ccccc21 (centres unmarked) [Compound 17] the IC50 [1] was greater than 5000 nM and the IC50 [2] was greater than 5000 nM.

In the case of [2H]c1nc2c(s1)C(CC)(c1ccccc1)C1=C(CC(C)(C)CC1=O)N2 (centres unmarked) [Compound 18], the IC50 ([1]; GSK3β TR-FRET BIOCHEMICAL (TR-FRET) GMean IC50, 2 μM ATP (Km), 100 min at room temperature) is reported as 500 nM and the IC50 ([2]; GSK3α TR-FRET BIOCHEMICAL (TR-FRET) GMean IC50, 4 μM ATP (Km), 100 min at room temperature) is reported as 118 nM.

In the case of CCC1(c2ccccc2)C2=C(CC(C)(C)CC2=O)Nc2nc(Cl)sc21 (centres unmarked) [Compound 19], the IC50 [1] is reported as 4350 nM and the IC50 [2] is reported as 1990 nM.

For CC1(C)CC(=O)C2=C(C1)Nc1ncsc1[C@]2(C)c1ccccc1 [drawing 153], the IC50 [3] was 238 nM and the IC50 [4] was 384 nM.

In the case of CC[C@@]1(c2ccccc2)C2=C(CC(C)(C)CC2=O)Nc2ncsc21 [drawing 157], the IC50 [3] is reported as 14 nM and the IC50 [4] is reported as 65 nM.

CC[C@@]1(c2cccc(F)c2)C2=C(CC(C)(C)CC2=O)Nc2ncsc21 [drawing 159] gave an IC50 [3] of 599 nM and an IC50 [4] of 2270 nM.

Work on CC[C@@]1(c2cccc(C)c2)C2=C(CC(C)(C)CC2=O)Nc2ncsc21 [drawing 163] yielded an IC50 [3] of 69 nM and an IC50 [4] of 245 nM.

CC[C@@]1(c2ccccc2)C2=C(CC(C)(C)CC2=O)Nc2n[nH]cc21 [drawing 170] showed an IC50 [4] of 507 nM.

For CC1(C)CC(=O)C2=C(C1)Nc1ncsc1[C@]2(C)c1ccccc1 [drawing 172], the “Plasma Stability (Mouse, % remaining)” value ([5]; mouse plasma, 5 μM, 5 hours at 37° C.) was 100%, the “Plasma Stability (Human, % remaining)” value [6] was 100% and the fraction unbound at 5 h, 5 μM [7] was 0.004. The fraction unbound at 5 h, 5 μM [8] was 0.005, the “Mouse Liver Microsomal Stability, % remaining” value [9] was 0.7% and the “Human Liver Microsomal Stability, % remaining” value [10] was 17.7%. It also gave a solubility thermodynamic at 18 h [11] of 34 µM (≈ 11 µg/mL).

With CC1(C)CC(=O)C2=C(C1)Nc1n[nH]cc1[C@]2(C)c1ccccc1 [drawing 178] the “Plasma Stability (Mouse, % remaining)” value [5] was 96.6%, the “Plasma Stability (Human, % remaining)” value [6] was 100% and the “Mouse Liver Microsomal Stability, % remaining” value [9] was 100%. For the same compound, the “Human Liver Microsomal Stability, % remaining” value [10] was 100% and the solubility thermodynamic at 18 h [11] was greater than 500 µM.

For CC1(C)CC(=O)C2=C(C1)Nc1ncsc1[C@]2(C)c1ccccc1 [drawing 181], the Papp A→B at 120 min, 5 μM [12] was 28.4 ×10⁻⁶ cm/s, the Papp B→A at 120 min, 5 μM [12] was 62.8 ×10⁻⁶ cm/s and the efflux ratio at 120 min, 5 μM [12] was 2.2.

For CC[C@@]1(c2ccccc2)C2=C(CC(C)(C)CC2=O)Nc2ncsc21 [drawing 182], the Papp A→B at 120 min, 5 μM [12] was 24.2 ×10⁻⁶ cm/s, the Papp B→A at 120 min, 5 μM [12] was 62.1 ×10⁻⁶ cm/s and the efflux ratio at 120 min, 5 μM [12] was 2.6.

With CC1(C)CC(=O)C2=C(C1)Nc1n[nH]cc1[C@]2(C)c1ccccc1 [drawing 183] the Papp A→B at 120 min, 5 μM [12] was 1.82 ×10⁻⁶ cm/s and the Papp B→A at 120 min, 5 μM [12] was 66.1 ×10⁻⁶ cm/s.

For CC[C@@]1(c2ccccc2)C2=C(CC(C)(C)CC2=O)Nc2n[nH]cc21 [drawing 184], the Papp A→B at 120 min, 5 μM [12] was 1.26 ×10⁻⁶ cm/s and the Papp B→A at 120 min, 5 μM [12] was 57.7 ×10⁻⁶ cm/s.

For Cc1c[nH]c(-c2cnc(NCCNc3ccc(C#N)cn3)nc2-c2ccc(Cl)cc2Cl)n1 [drawing 185], the Papp A→B at 120 min, 5 μM [12] was 6.5 ×10⁻⁶ cm/s and the Papp B→A at 120 min, 5 μM [12] was 64.2 ×10⁻⁶ cm/s.
